Here are results for 5 molecules from patent US9227991B2, “Anti-tumor bivalent platinum complex and preparation method for complex and ligand of complex” (SOUTHEAST UNIVERSITY, priority 2012, dated 2016).

SMILES strings stand for the structures.

As a reminder, the solubility is the dissolved amount per volume that the medium holds. A lower solubility goes with a poorly soluble substance. Broadly, the LD50 is the dose expected to kill half of the subjects tested. In general, IC50 refers to the point on the concentration scale where inhibition reaches its midpoint.

The nature of one data set: Solubility in water. The class given is physicochemical. On the procedure:
As for the platinum complex prepared by the method of the present invention, the molecular structures of the compounds are determined by H NMR, HR ESI-MS and elemental analysis and their solubility in water was determined.

In data set [1] the test system is mouse-transplanted tumor S180 sarcoma. Put plainly: Mouse-transplanted tumor animal model, S180. The data set is classed as in vivo, ICR mice. The conditions noted are these: S180 mice; for Number of Animal End of the test: 10 at beginning. As to the method: (§1) This test example adopts mouse-transplanted tumor animal model method to test the inhibitory effects of the complexes provided by the present invention on animal-transplanted tumor S180 sarcoma and Heps tumor.
Get ICR mice and inoculate solid tumor according to the research method of transplanted tumor. […] Administrate drug by intravenous injection for the first time 24 hours (d1) after the inoculation, administrate drug once every other day for a total of 4 times, at a dose of 0.4 ml/20 g each time. Kill and weigh the tumor-bearing mice days (d10) after the inoculation, separate and weigh the tumor mass, and conduct statistical treatment of all the obtained data (t-test). The inhibitory effect of the complexes on mouse-transplanted tumors S180 and Heps is shown in Table 2 and Table 3 respectively.

The test system of data set [2] is mouse-transplanted tumor Heps. The data set is described as follows: Mouse-transplanted tumor animal model, Heps. The class given is in vivo, ICR mice. The conditions noted are these: Heps mice; for Number of Animal End of the test: 8 at beginning. As to the method:
as §1
Get ICR mice and inoculate solid tumor according to the research method of transplanted tumor. Weigh the mice 24 hours after the inoculation and randomly divide them into 7 groups, 8 mice per drug group. Administrate drug by intravenous injection for the first time 24 hours (d1) after the inoculation, administrate drug once every other day for a total of 4 times, at a dose of 0.4 ml/20 g each time. Kill and weigh the tumor-bearing mice days (d10) after the inoculation, separate and weigh the tumor mass, and conduct statistical treatment of all the obtained data (t-test). The inhibitory effect of the complexes on mouse-transplanted tumors S180 and Heps is shown in Table 2 and Table 3 respectively.

The nature of data set [3]: Acute toxicity test in mice (iv), Bliss method. The conditions noted are these: both, Kunming, mouse, in vivo, iv. As to the method:
(§2) The toxicity of the two platinum complexes provided by the present invention was preliminarily researched.
(§3) Select 50 Kunming mice of clean grade, 25 males and 25 females, with body weight 18˜22 g, randomly divide them into 5 groups, 10 mice in each group, and fast for 12 hours. […] The acceptance capacity of an animal is 0.4 mL/20 g. Observe continuously for 14 days after administration, and record toxic symptoms and death of mice.

For data set [4], the system named is human hepatoma carcinoma cell HepG-2. Put plainly: MTT cytotoxicity test, HepG2. The conditions noted are these: 48 hours. The class given is cell-based. On the procedure:
(§4) This test example adopts MTT method to conduct cytotoxicity test on the complexes of the present invention and the common clinical anti-cancer platinum drugs.
(§5) Select cells in logarithmic phase, count them and inoculate them in a 96-well culture plate, at about 8000-10000 cells/well. Cultivate the cells overnight, administrate drug after the cells are attached to the wall, and set a drug group, a positive control group and a negative control group. The complex to be tested is prepared into a stock solution by using 5% glucose aqueous solution. Before use, it is diluted with cell culture medium into solutions at a series of concentrations. Each concentration has 3 duplicate wells. Cultivate for 48 hours after administration of drug, add 20 μL of 5 mg/mL MTT, incubate at 37° C. for 4 hours, remove the supernate and add 150 μL of DMSO-dissolved formazan. Determine OD value of every well at 490 nm wavelength by microplate reader, calculate inhibition rate, draw a concentration-inhibition rate curve and calculate value IC50.
A general note: Tetrazolium dyes change colour on reduction, which living cells bring about.

The subject of data set [5] is human breast cancer cell MDA-MB-231. Put plainly: MTT cytotoxicity test, MDA-MB-231. The class given is cell-based. The conditions noted are these: MDA-MB-231, MTT, 48 hours. On the procedure: as §4, §5
For data set [6], the system named is human umbilical vein endothelial cell HUVEC. The data set is described as follows: MTT cytotoxicity test, HUVEC. The data set is classed as cell-based. The conditions noted are these: 48 hours. As to the method:
as §4, §5

Data set [7] deals with human breast cancer drug resistant cell MCF-7. The data set is described as follows: MTT cytotoxicity test, MCF-7 drug resistant. The data set is classed as cell-based. The conditions noted are these: 48 hours. On the procedure: as §4, §5
The subject of data set [8] is human erythroleukemia cell K562. Put plainly: MTT cytotoxicity test, K562. The class given is cell-based. The conditions noted are these: 48 hours. As to the method:
as §4, §5

The test system of data set [9] is human gastric adenocarcinoma cell BGC823. The data set is described as follows: MTT cytotoxicity test, BGC823. The data set is classed as cell-based. The conditions noted are these: 48 hours. As to the method:
as §4, §5

For data set [10], the system named is human lung cancer cell A549. Put plainly: MTT cytotoxicity test, A549. The class given is cell-based. The conditions noted are these: 48 hours. On the procedure: as §4, §5
In data set [11] the test system is human breast cancer cell MCF-7. Put plainly: MTT cytotoxicity test, MCF-7. The data set is classed as cell-based. The conditions noted are these: MCF-7, MTT, 48 hours. As to the method:
as §4, §5

Data set [12] deals with human acute promyelocytic leukemia cell NB4. Put plainly: MTT cytotoxicity test, NB4. The class given is cell-based. The conditions noted are these: 48 hours. On the procedure: as §4, §5
Data set [13] deals with human hepatoma carcinoma cell SMMC-7721. The data set is described as follows: MTT cytotoxicity test, SMMC-7721. The data set is classed as cell-based. The conditions noted are these: SMMC-7721, MTT, 48 hours. On the procedure: as §4, §5
Data set [14] has as its system human large cell lung cancer cell NCI-H460. Put plainly: MTT cytotoxicity test, NCI-H460. The class given is cell-based. The conditions noted are these: 48 hours. As to the method:
as §4, §5

The next data set relates to Kunming mice. Put plainly: Acute toxicity test in mice (iv), Bliss method. The conditions noted are these: mice, iv via caudal vein, 14 days observation, Bliss method. As to the method:
as §2, §3

Another data set has as its system mouse. The conditions noted are these: cited from earlier work.
[15] abbreviates: 25 mg/kg iv every other day x4, X ± SD.

`[NH2][Pt]1([NH2])[O]C(=O)C2(CC(=O)C2)C(=O)[O]1` [GSH-5, cis-[3-ketone cyclobutane-1,1-dicarboxylic acid radical.diamineplatinum (II)]] yielded a solubility in “Solubility in water” of 16 mg/mL. The “Body weight (g) After administration” value in data set [1] (15 mg/kg iv every other day x4, X ± SD) was 22.50 ± 1.91 g; in data set [1] (30 mg/kg iv every other day x4, X ± SD), 18.13 ± 1.76 g; in data set [2] (setting [15]), 22.13 ± 3.52 g; in data set [2] (50 mg/kg iv every other day x4, X ± SD) it was 13.50 ± 0.50 g. The “Number of Animal End of the test” value in data set [1] (15 mg/kg iv every other day x4) is reported as 10; in data set [1] (30 mg/kg iv every other day x4) it was 8; in [2] (25 mg/kg iv every other day x4) it was 8; in [2] (50 mg/kg iv every other day x4), 2. The 50% lethal dose (LD50) at 14 days in data set [3] worked out at 150 mg/kg.

Take `N.N.[Cl][Pt][Cl]` [Cis-platinum, cis-platinum]: the IC50 turned out to be 2.11 µM in data set [4]; 18.3 µM in data set [5]; 11.2 µM in data set [6]; 32.9 µM in data set [7]; 10.9 µM in data set [8]; 5.44 µM in [9]. For the same molecule, the results for the IC50 in [10] and in data set [11] were 16.6 µM and 32.9 µM, respectively.

`N[C@@H]1CCCC[C@H]1N.O=C1CC2(C1)C(=O)[O][Pt][O]C2=O` [GSH-6, cis-[3-ketone-1,1-cyclobutane-dicarboxylic acid radical.trans-1,2-cyclohexanediamineplatinum(II)]]: the IC50 in data set [4] was 31.6 µM; in data set [12], 3.1 µM; in data set [13], 216 µM; in [5], 36.3 µM; in [6], 68.9 µM; in [7], 1350 µM. Further, the IC50 in data set [14] worked out at 11.9 µM; in data set [8] it was 36 µM; in [9], 8.9 µM; in [10], 47.5 µM; in data set [11], 34.2 µM. The “Body weight (g) After administration” value in [1] (10 mg/kg iv every other day x4, X ± SD) was found to be 20.60 ± 2.50 g; in [1] (20 mg/kg iv every other day x4, X ± SD), 18.60 ± 2.24 g; in data set [2] (setting [15]) it was 18.10 ± 1.10 g. Besides, the “Tumor inhibition rate (%)” value in data set [1] (10 mg/kg iv every other day x4, d10) was 33.13%; in data set [1] (20 mg/kg iv every other day x4, d10) it was 46.61%; in data set [2] (25 mg/kg iv every other day x4, d10), 35.44%. For the same molecule, the “Tumor weight” value in data set [1] (10 mg/kg iv every other day x4, d10, X ± SD) is given as 0.65 ± 0.14 g; in data set [1] (20 mg/kg iv every other day x4, d10, X ± SD) it was 0.52 ± 0.13 g; in data set [2] (25 mg/kg iv every other day x4, d10, X ± SD) it was 0.84 ± 0.17 g. Besides, the “Number of Animal End of the test” value in [1] (10 mg/kg iv every other day x4) was 10; in data set [1] (20 mg/kg iv every other day x4) it was 10; in data set [2] (25 mg/kg iv every other day x4), 8; in [2] (50 mg/kg iv every other day x4), 0. The “LD50 (acute toxicity test)” value in the data set with Kunming mice came out at 100 mg/kg.

Take `N.N.O=C([O-])C1(C(=O)[O-])CCC1.[Pt+2]` [Carboplatin, carboplatin]: the IC50 in data set [4] amounted to 99.1 µM; in data set [12] it was 12.6 µM; in data set [13], 52.7 µM; in [5], 93.3 µM; in [6], 102 µM; in data set [7], 457 µM. Also, the IC50 was 30.6 µM in [14]; 118 µM in [8]; 43.2 µM in [9]; 137 µM in [10]; 109 µM in [11]. Further, the “mouse LD50 values in literature” value with mouse was 139.00 mg/kg.

Take `O=C1[O][Pt]2([NH][C@@H]3CCCC[C@H]3[NH]2)[O]C1=O` [Oxaliplatin, oxaliplatin]: the IC50 in data set [4] turned out to be 27.2 µM; in data set [13], 32.3 µM; in [5], 29.1 µM; in data set [6], 16.3 µM; in [7] it was 351 µM; in data set [14] it was 23.1 µM. The IC50 in data set [8] was determined as 23.6 µM; in [9], 7.92 µM; in data set [10], 70.3 µM; in [11], 25.7 µM.
